Measurements as given in US9212214B2, “Methods of increasing the expression yield of vitamin K-dependent proteins” (CSL Limited, priority 2009, dated 2015).

Experiments:
[1] = test system: CHO-S cell line expressing rIX-FP; test: Flask productivity assay (Experiment 1): FIX activity, FIX antigen; format: cell-based, Chinese hamster; conditions: single addition; for Activity (Factor IX activity) / Antigen (Factor IX antigen): 50 ng/ml, mean of duplicate flasks
[2] = test system: CHO-S cells expressing albumin fused Factor VII; test: Specific activity of albumin-fused Factor VII expressed in bioreactor culture (Experiment 6); format: cell-based, Chinese hamster; conditions: albumin-fused FVII; 50 ng/ml increased daily to 250 ng/ml; MSB n = 4, rMSB n = 25
Method: An albumin fused Factor VII was cloned and expressed in CHO-S cells as described in Thromb. Haemost. 2008 April; 99(4):659-67.
Cultivation of mammalian cells occurred under either batch or fed-batch conditions at a starting volume of 3 liters in a 5 liter bioreactor system. Controlled parameters were temperature (37° C.), pH (7.2), agitation (250 rpm) and dissolved oxygen. The medium used was a commercially available, chemically defined media (CD-CHO, Invitrogen) which was supplemented with MSB or rMSP in a starting concentration of 50 ng/ml. Each day the concentration was increased by 50 ng/ml until on day 5 a maximum concentration of 250 ng/ml was reached, which was then held for the remainder of the cultivation period.
The activity of FVII was determined using a chromogenic assay (COASET® FVII test kit (Chromogenix, 82190063)). The amount of protein was determined via reverse phase HPLC.

[3] = test system: rIX-FP CHO-K1 clone; test: Reactor fed-batch culture (Experiment 2): rIX-FP activity, antigen, cell growth; format: cell-based, Chinese hamster; conditions: for Activity (total active produced) / Antigen (total antigen produced) / viable cell densities / growth profile / Ratio (active molecule to antigen): fed-batch; for Activity (total active produced) / Antigen (total antigen produced): Medium A, approx. 4 L; for Activity (total active produced) / Antigen (total antigen produced) / Ratio (active molecule to antigen): up to 192 hour post inoculation; for viable cell densities / growth profile: reduced versus non-reduced MSB
Method: The medium used for the propagation was a commercially obtainable serum-free chemically defined medium specifically designed for the production of recombinant proteins in CHO cells: “Medium A”. The clones utilised the Lonza glutamine synthetase (GS) system and were passaged in the absence of glutamine with selection maintained by 25 uM methionine sulfoximine (MSX). In the last culture stage, used for productivity measurement, both glutamine and MSX were not added to the medium.
Vitamin K is essential to the cell for the production of active recombinant Factor IX, due to the Vitamin K-dependent gamma-carboxylation of the molecule. In experiments describing the present invention Vitamin K3 in the form of Menadione sodium bi-sulphate (MSB, Sigma) was chosen as the source of Vitamin K as this form is water soluble and thus readily accessible to the cell. Addition of MSB occurred daily at a concentration of 50 ng/ml.
Due to the inherent unstable nature of the reduced MSB, quantification of exact concentrations of the reduced MSB was not available at the time of experimentation. Therefore all stated concentrations of reduced MSB are calculated values derived from the starting concentration of MSB at the commencement of the reduction process. It is anticipated that the actual reduced MSB concentration is less than the calculated amount due to some small losses occurring through the reduction process.
The reactors were Sartorius/Braun 5 L dished bottom glass reactors, with a single Rushton Impeller for agitation and a ring sparger. All reactor cultures were performed under the following conditions unless otherwise stated.
(§1) Cell counts were performed utilising the Innovartis Cedex automated cell counter in accordance with the manufacturers instructions. Glucose, lactate, ammonia and glutamine assays were performed utilising the Yellow Springs Instruments (YSI) 7100 analyser in accordance with the manufacturers instructions. Off-line determination of dissolved carbon dioxide concentrations were performed using the RapidLab 248 Blood Gas Analyser from Siemens (formerly Bayer) in accordance with the manufacturer's instructions. Antigen assay was performed using an internal procedure ELISA for Quantitation of Factor IX Antigen. The Factor IX Activity assay was performed using the “BIOPHEN FIX” chromogenic FIX test. Sampling was performed daily from the point of inoculation for all assays.
Under reactor fed-batch conditions a rIX-FP CHO-K1 clone was cultivated under the standard conditions. This experiment assessed the cell growth, antigen production and active rIX-FP production from the cell under either MSB addition or reduced MSB addition. The feed utilised in this experiment was glucose based (100 g/l) supplemented with the following amino acids: • ? Asparagine at 21.4 g/L; • ? Cysteine at 5.6 g/L; • ? Aspartic acid at 5 g/L.
The reactor test conditions were Reactor A4 utilising a non-reduced MSB addition and Reactor B4 utilising a reduced MSB addition. In both reactors Medium A was used as described in Example 4.

[4] = test system: CHO-S cell line expressing rIX-FP; test: Flask productivity assay (Experiment 1): FIX activity, FIX antigen; format: cell-based, Chinese hamster; conditions: for Ratio (activity/antigen) / Activity (Factor IX activity) / Antigen (Factor IX antigen): double addition; for Activity (Factor IX activity) / Antigen (Factor IX antigen): 50 ng/ml, mean of duplicate flasks
Method: as §1
The Flask productivity assay was performed as described below.
A CHO-S cell line expressing rIX-FP was used and cultured in an alternative commercially obtainable serum-free chemically defined medium specifically designed for the production of recombinant proteins in CHO cells (“Medium B”) with 8 mM L-glutamine. In the N−1 and N (with N being the last passage number) passage 50 ng/ml MSB was added. Another addition was performed at 48 hours post inoculation. Cultures were inoculated at 2×10^5 viable cells/mL at a 30 mL volume in a 125 mL shake flask, cultured at 37 C, 5% CO2, 125 rpm in a humidified incubator (Multitron, Infors HT). Samples were assayed for cell density, cell viability, rIX-FP activity and antigen content.
Experiment 1 was performed to assess the effect of reduced MSB on culture performance compared to additions of MSB in a flask format. The cells were subjected to the standard flask productivity assay with assays for cell density, Factor IX antigen and Factor IX activity performed.

[5] = test system: CHO-K1 clone A5 (rIX-FP); test: Extended draw-fill reactor culture (Experiment 3): rIX-FP activity, antigen, cell growth; format: cell-based, Chinese hamster; conditions: for Ratio / Activity / Antigen: extended draw-fill; for Activity / Antigen: approx. 7 L
Method: as §1
The CHO-K1 clone A5 was cultivated under extended draw-fill conditions with two media, Media A and yet another commercially obtainable serum-free chemically defined medium specifically designed for the production of recombinant proteins in CHO cells: Media C. While comparing the performance of the media, the effect of the addition of MSB or reduced MSB was assessed (Table 5). As with previous experiments the outputs from this investigation were growth parameters of the cell and the production of active rIX-FP molecule and rFIX-FP antigen.

[6] = test system: gamma carboxylation; conditions: cell free system; cited from earlier work
[7] = test system: Chinese hamster ovary (CHO) cells secreting Factor IX; conditions: cited from earlier work

With CC1(S(=O)(=O)[O-])CC(=O)c2ccccc2C1=O.[Na+] (stereo not shown) [MSB, Menadione sodium bisulphite, reference compound] the “Ratio (activity/antigen)” value ([1]; 72 hours) was 0.57, the “Activity (Factor IX activity)” value ([1]; 72 hours) was 357.5 and the “Antigen (Factor IX antigen)” value ([1]; 72 hours) was 625.5. For the same molecule, the “Ratio (activity/antigen)” value ([1]; 96 hours) was 0.24, the “Activity (Factor IX activity)” value ([1]; 96 hours) was 629.5 and the “Antigen (Factor IX antigen)” value ([1]; 96 hours) was 2573. For the same molecule, the “Specific Activity, Mean” value [2] was 313.5 IU/mg, the “amount of active rIX-FP” value ([3]; fed-batch conditions) was 22357 IU and the “Activity (total active produced)” value [3] was 22357 U. For the same molecule, the “Antigen (total antigen produced)” value [3] was 49479 U, the “viable cell densities / growth profile” value [3] was “very similar growth profiles and maximum cell densities” and the “Ratio (active molecule to antigen)” value [3] was 0.45. For the same molecule, the “Ratio (activity/antigen)” value ([4]; 72 hours) was 0.96, the “Activity (Factor IX activity)” value ([4]; 72 hours) was 431.5 and the “Antigen (Factor IX antigen)” value ([4]; 72 hours) was 451.5. The “Ratio (activity/antigen)” value ([4]; 96 hours) was 0.56, the “Activity (Factor IX activity)” value ([4]; 96 hours) was 649 and the “Antigen (Factor IX antigen)” value ([4]; 96 hours) was 1155.5. For the same molecule, the “activity values as percent of the reduced MSB addition values” ([5]; draw-fill, both media types) was 94-98%, the Ratio ([5]; Medium A) was 0.49 and the Activity ([5]; Medium A, 50 ng/ml per day) was 28864 U. It also gave an Antigen ([5]; Medium A, 50 ng/ml per day) of 58987 U, a Ratio ([5]; Medium C) of 0.52 and an Activity ([5]; Medium C, 50 ng/ml per day) of 23570 U. It also gave an Antigen ([5]; Medium C, 50 ng/ml per day) of 45443 U.

In the case of CC1=CC(=O)c2ccccc2C1=O [menadione, 2-methyl-1,4-naphthoquinone], the “promotion of gamma carboxylation” value [6] is given as “inactive in promoting gamma carboxylation”.

For Cc1cc(O)c2ccccc2c1O [reduced menadione], the “promotion of gamma carboxylation” value [6] is listed as “inactive in promoting gamma carboxylation”.

In the case of “Reduced Menadione Sodium Bisulphite [rMSB]”, the “Ratio (activity/antigen)” value ([1]; 72 hours) is reported as 0.97, the “Activity (Factor IX activity)” value ([1]; 72 hours) is reported as 500 and the “Antigen (Factor IX antigen)” value ([1]; 72 hours) is reported as 516. The “Ratio (activity/antigen)” value ([1]; 96 hours) was 0.86, the “Activity (Factor IX activity)” value ([1]; 96 hours) was 1070.5 and the “Antigen (Factor IX antigen)” value ([1]; 96 hours) was 1249. The “Specific Activity, Mean” value [2] was 392.6 IU/mg, the “amount of active rIX-FP” value ([3]; fed-batch conditions) was 35444 IU and the antigenic yield ([3]; fed-batch conditions) was 38197 IU. The “antigenic yield as percent of the MSB value” ([3]; fed-batch conditions) was 77%, the “increase in active rIX-FP relative to MSB addition” value ([3]; fed-batch conditions) was 59% and the “Activity (total active produced)” value [3] was 35444 U. The “Antigen (total antigen produced)” value [3] was 38197 U, the “viable cell densities / growth profile” value [3] was “very similar growth profiles and maximum cell densities” and the “Ratio (active molecule to antigen)” value [3] was 0.93. For the same molecule, the “Ratio (activity/antigen)” value ([4]; 72 hours) was 0.93, the “Activity (Factor IX activity)” value ([4]; 72 hours) was 477 and the “Antigen (Factor IX antigen)” value ([4]; 72 hours) was 514.5. For the same molecule, the “activity compared with non-reduced MSB additions” value ([4]; 72 hr) was “slightly higher than non-reduced MSB additions”, the “Ratio (activity/antigen)” value ([4]; 96 hours) was 0.71 and the “Activity (Factor IX activity)” value ([4]; 96 hours) was 902. The “Antigen (Factor IX antigen)” value ([4]; 96 hours) was 1271, the “activity compared with MSB addition” value ([4]; 96 hr) was “greater activity results than that obtained for the MSB addition” and the “cell growth, reduced versus non-reduced MSB” value ([5]; draw-fill, 50 ng/ml per day) was “very little difference in relation to cell growth”. For the same molecule, the “antigenic material compared to MSB additions” value ([5]; draw-fill, Medium A) was 78%, the “antigenic material compared to MSB additions” value ([5]; draw-fill, Medium C) was 84% and the “increase in ratio compared to MSB additions” value ([5]; draw-fill, depending on media type) was 19-35%. For the same molecule, the Ratio ([5]; Medium A) was 0.66, the Activity ([5]; Medium A, 50 ng/ml per day) was 30580 U and the Antigen ([5]; Medium A, 50 ng/ml per day) was 46254 U. For the same molecule, the Ratio ([5]; Medium C) was 0.62, the Activity ([5]; Medium C, 50 ng/ml per day) was 24052 U and the Antigen ([5]; Medium C, 50 ng/ml per day) was 38528 U.

In the case of vitamin K, the “concentration in cell culture medium at which requirement to elicit active Factor IX reaches saturation” value [7] is given as 5 µg/mL.
